Results as given in patent publication US20020137929A1, “1 - (3-heterocyclylphenyl) isothiourea, -isourea, -guanidine and -amidine herbicidal agents” (Intellectual Property Department, BASF Aktiengesellschaft, priority 1998, published 2002).

What was measured:
AMBEL (Ragweed, Common) = experiment: Postemergence herbicidal evaluation; type: in vivo, Ambrosia artemisifolia
Method in brief: (§1)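 Seedlings grown about two weeks were sprayed at 40 psi with compound dispersed in 50/50 acetone/water plus 0.5% TWEEN 20, at about 0.0156 to 0.500 kg/ha. Plants were kept in the greenhouse and scored 4–5 weeks later on a 0–9 visual scale against untreated controls.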

CASOB (Sicklepod) [1] = experiment: Postemergence herbicidal evaluation; type: in vivo, Cassia obtusifolia
Method in brief: as §1

[2] = tested on: CHEAL (Lambsquarters, Common); experiment: Postemergence herbicidal evaluation; type: in vivo, Chenopodium album
Method in brief: as §1

GALAP (Galium) [3] = experiment: Postemergence herbicidal evaluation; type: in vivo, Galium aparine
Method in brief: as §1

ECHCG (Barnyardgrass) = experiment: Postemergence herbicidal evaluation; type: in vivo, Echinochloa crus-galli
Method in brief: as §1

SETVI (Foxtail, Green) = experiment: Postemergence herbicidal evaluation; type: in vivo, Setaria viridis
Method in brief: as §1

[4] = tested on: GLXMAW (Soybean, Williams); experiment: Postemergence herbicidal evaluation; type: in vivo, Glycine max, (L.) Merr. cv Williams
Method in brief: as §1

ORYSAT (Rice, Tebonnet) = experiment: Postemergence herbicidal evaluation; type: in vivo, Oryza sativa, (L.) Tebonnet
Method in brief: as §1

CASOB (Sicklepod) [5] = experiment: Preemergence herbicidal evaluation; type: in vivo, Cassia obtusifolia; conditions: rated 4-5 weeks after treatment
Method in brief: (§2)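 Seeds were planted in potting soil in cups, then sprayed preemergence with the test compound in aqueous acetone at about 0.0156 to 0.500 kg per hectare. Cups were kept under greenhouse conditions and visually rated 4–5 weeks after treatment on a 0–9 scale against an untreated control.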

GALAP (Galium) [6] = experiment: Preemergence herbicidal evaluation; type: in vivo, Galium aparine; conditions: rated 4-5 weeks after treatment
Method in brief: as §2

ZEAMX (Corn, Field) = experiment: Preemergence herbicidal evaluation; type: in vivo, Zea mays; conditions: rated 4-5 weeks after treatment
Method in brief: as §2

CYPIR (Rice Flatsedge) = experiment: Preemergence weed control under flooded paddy conditions; type: in vivo, Cyperus iria; conditions: rated 3-4 weeks after treatment
Method in brief: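 Seeds or propagules sown in top 0.5 cm of silt loam soil, flooded 1.5 to 3 cm above surface throughout. Compound in 50/50 v/v aqueous/acetone pipetted into flood water at about 0.0313 to 0.500 kg/ha. Visual 0-9 rating versus control after three to four weeks in greenhouse.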

CYPSE (Flatsedge) [7] = experiment: as above; type: in vivo, Cyperus serotinus; conditions: rated 3-4 weeks after treatment
Method in brief: (§3)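 Flooded-pot preemergence screen with silt loam and seeds in the upper 0.5 cm. Dose about 0.0313 to 0.500 kg/ha, delivered into flood water; visual 0-9 score after 3 to 4 weeks.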

[8] = tested on: SAGPY (Arrowhead (Pygmaea)); experiment: as above; type: in vivo, Sagittaria pygmaea; conditions: rated 3-4 weeks after treatment
Method in brief: as §3

CYPSE (Flatsedge) [9] = experiment: Postemergence weed control under flooded paddy conditions; type: in vivo, Cyperus serotinus; conditions: postemergence weeds, rated 3 to 4 weeks after treatment
Method in brief: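 Weeds 3 to 5 cm tall and rice seedlings at the 1.5 to 2.5 leaf stage were flooded, with water held 1.5 to 3 cm above the soil. Compounds in 50/50 v/v aqueous/acetone went into the flood water at about 0.0313 to 0.500 kg/ha. Visual 0-9 ratings versus control were made 3 to 4 weeks later.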

CN1C(=O)C(CC(=O)O)SC1=Nc1cc(-n2c(=O)cc(C(F)(F)F)n(C)c2=O)c(F)cc1Cl (stereo not shown) [Compound 63, 2-{{2-Chloro-5-[3,6-dihydro-3-methyl-2,6-dioxo-4-(trifluoromethyl)-1(2H)-pyrimidinyl]-4-fluoro-phenyl}imino}-3-methyl-4-oxo-5-thiazolidineacetic acid]
6.5: Postemergence herbicidal rating GLXMAW ([4]; Rate 0.0158 kg/ha)
4.0: SAGPY herbicidal effect rating ([8]; 0.0313 kg/ha)
1.0: Postemergence herbicidal rating GALAP (GALAP (Galium) [3]; Rate 0.0158 kg/ha) | Preemergence herbicidal rating ZEAMX (ZEAMX (Corn, Field); rate 0.0313 kg/ha)
3.0: Postemergence herbicidal rating CASOB (CASOB (Sicklepod) [1]; Rate 0.0315 kg/ha)
0.0: Postemergence herbicidal rating CASOB (CASOB (Sicklepod) [1]; Rate 0.0158 kg/ha) | Preemergence herbicidal rating CASOB (CASOB (Sicklepod) [5]; rate 0.0156 kg/ha) | Preemergence herbicidal rating GALAP (GALAP (Galium) [6]; rate 0.0156 kg/ha) | Preemergence herbicidal rating GALAP (GALAP (Galium) [6]; rate 0.0313 kg/ha) | Preemergence herbicidal rating GALAP (GALAP (Galium) [6]; rate 0.0625 kg/ha) | Preemergence herbicidal rating ZEAMX (ZEAMX (Corn, Field); rate 0.0156 kg/ha) | CYPSE herbicidal effect rating (CYPSE (Flatsedge) [7]; 0.0313 kg/ha) | CYPSE herbicidal effect rating (CYPSE (Flatsedge) [7]; 0.0625 kg/ha) | CYPSE herbicidal effect rating (CYPSE (Flatsedge) [7]; 0.1250 kg/ha) | CYPSE herbicidal effect rating (CYPSE (Flatsedge) [7]; 0.2500 kg/ha) | Herbicidal rating CYPSE (CYPSE (Flatsedge) [9]; Rate 0.0313 kg/ha) | Herbicidal rating CYPSE (CYPSE (Flatsedge) [9]; Rate 0.0625 kg/ha) | Herbicidal rating CYPSE (CYPSE (Flatsedge) [9]; Rate 0.1250 kg/ha) | Herbicidal rating CYPSE (CYPSE (Flatsedge) [9]; Rate 0.2500 kg/ha)
2.0: Postemergence herbicidal rating ECHCG (ECHCG (Barnyardgrass); Rate 0.0158 kg/ha) | Postemergence herbicidal rating ECHCG (ECHCG (Barnyardgrass); Rate 0.0315 kg/ha) | Preemergence herbicidal rating CASOB (CASOB (Sicklepod) [5]; rate 0.0313 kg/ha) | Preemergence herbicidal rating CASOB (CASOB (Sicklepod) [5]; rate 0.0625 kg/ha) | Preemergence herbicidal rating CASOB (CASOB (Sicklepod) [5]; rate 0.1250 kg/ha) | Preemergence herbicidal rating ZEAMX (ZEAMX (Corn, Field); rate 0.0625 kg/ha) | CYPIR herbicidal effect rating (CYPIR (Rice Flatsedge); 0.0313 kg/ha)
5.0: Postemergence herbicidal rating CASOB (CASOB (Sicklepod) [1]; Rate 0.0630 kg/ha) | Postemergence herbicidal rating ORYSAT (ORYSAT (Rice, Tebonnet); Rate 0.0158 kg/ha) | Postemergence herbicidal rating ORYSAT (ORYSAT (Rice, Tebonnet); Rate 0.0315 kg/ha)
6.0: Postemergence herbicidal rating AMBEL (AMBEL (Ragweed, Common); Rate 0.0158 kg/ha) | Postemergence herbicidal rating AMBEL (AMBEL (Ragweed, Common); Rate 0.0315 kg/ha) | Postemergence herbicidal rating GALAP (GALAP (Galium) [3]; Rate 0.0315 kg/ha) | Postemergence herbicidal rating ECHCG (ECHCG (Barnyardgrass); Rate 0.0630 kg/ha) | Postemergence herbicidal rating ORYSAT (ORYSAT (Rice, Tebonnet); Rate 0.0630 kg/ha) | Preemergence herbicidal rating ZEAMX (ZEAMX (Corn, Field); rate 0.1250 kg/ha) | CYPIR herbicidal effect rating (CYPIR (Rice Flatsedge); 0.0625 kg/ha)
9.0: Postemergence herbicidal rating AMBEL (AMBEL (Ragweed, Common); Rate 0.0630 kg/ha) | Postemergence herbicidal rating CHEAL ([2]; Rate 0.0158 kg/ha) | Postemergence herbicidal rating CHEAL ([2]; Rate 0.0315 kg/ha) | Postemergence herbicidal rating SETVI (SETVI (Foxtail, Green); Rate 0.0158 kg/ha) | Postemergence herbicidal rating SETVI (SETVI (Foxtail, Green); Rate 0.0315 kg/ha) | Postemergence herbicidal rating SETVI (SETVI (Foxtail, Green); Rate 0.0630 kg/ha) | Preemergence herbicidal rating GALAP (GALAP (Galium) [6]; rate 0.1250 kg/ha) | Preemergence herbicidal rating GALAP (GALAP (Galium) [6]; rate 0.2500 kg/ha) | SAGPY herbicidal effect rating ([8]; 0.1250 kg/ha) | SAGPY herbicidal effect rating ([8]; 0.2500 kg/ha)
7.5: Postemergence herbicidal rating GLXMAW ([4]; Rate 0.0630 kg/ha)
7.0: Postemergence herbicidal rating CHEAL ([2]; Rate 0.0630 kg/ha) | Postemergence herbicidal rating GALAP (GALAP (Galium) [3]; Rate 0.0630 kg/ha) | Preemergence herbicidal rating CASOB (CASOB (Sicklepod) [5]; rate 0.2500 kg/ha) | Preemergence herbicidal rating ZEAMX (ZEAMX (Corn, Field); rate 0.2500 kg/ha) | CYPIR herbicidal effect rating (CYPIR (Rice Flatsedge); 0.1250 kg/ha) | CYPIR herbicidal effect rating (CYPIR (Rice Flatsedge); 0.2500 kg/ha) | SAGPY herbicidal effect rating ([8]; 0.0625 kg/ha)
8.5: Postemergence herbicidal rating GLXMAW ([4]; Rate 0.0315 kg/ha)
